Bases are written 5' to 3'; sugars and linkages follow in the same order, as letters with counts (s phosphorothioate, o phosphodiester; PS: all linkages phosphorothioate). C may stand for cytosine or 5-methylcytosine; the collection does not tell. l = locked nucleic acid (LNA); d = 2'-deoxy (DNA)
Biological target: HIF1A
Experiment: HeLa, 100 nM transfected, 24 h, mean of 3
Settings: ASO

Sequence | caspase activation (% of PBS control)
GTTACTGCCTTCTTAC (sugars l1 d2 l2 d7 l4, PS) | 361
GTTACTGCCTTCTTAC (sugars l1 d2 l2 d8 l3, PS) | 248
GTTACTGCCTTCTTAC (sugars l1 d2 l2 d9 l2, PS) | 149
GTTACTGCCTTCTTAC (sugars l1 d2 l2 d10 l1, PS) | 185
GTTACTGCCTTCTTAC (sugars l1 d3 l1 d6 l5, PS) | 359
GTTACTGCCTTCTTAC (sugars l1 d3 l1 d7 l4, PS) | 259
GTTACTGCCTTCTTAC (sugars l1 d3 l1 d8 l3, PS) | 174
GTTACTGCCTTCTTAC (sugars l1 d3 l1 d9 l2, PS) | 103
GTTACTGCCTTCTTAC (sugars l1 d3 l1 d10 l1, PS) | 130
GTTACTGCCTTCTTAC (sugars l1 d10 l1 d1 l3, PS) | 125
GTTACTGCCTTCTTAC (sugars l1 d10 l1 d2 l2, PS) | 102
GTTACTGCCTTCTTAC (sugars l1 d10 l1 d3 l1, PS) | 127
GTTACTGCCTTCTTAC (sugars l1 d10 l2 d1 l2, PS) | 136
GTTACTGCCTTCTTAC (sugars l1 d10 l2 d2 l1, PS) | 134
GTTACTGCCTTCTTAC (sugars l1 d10 l3 d1 l1, PS) | 261
GTTACTGCCTTCTTAC (sugars l1 d10 l5, PS) | 350
GTTACTGCCTTCTTAC (sugars l1 d11 l1 d1 l2, PS) | 117
GTTACTGCCTTCTTAC (sugars l1 d11 l1 d2 l1, PS) | 115
GTTACTGCCTTCTTAC (sugars l1 d11 l2 d1 l1, PS) | 137
GTTACTGCCTTCTTAC (sugars l1 d11 l4, PS) | 125

Sequence | caspase activation (% of PBS control)
GTTACTGCCTTCTTAC (sugars l1 d12 l1 d1 l1, PS) | 103
GTTACTGCCTTCTTAC (sugars l1 d12 l3, PS) | 100
GTTACTGCCTTCTTAC (sugars l1 d13 l2, PS) | 87.3
GTTACTGCCTTCTTAC (sugars l1 d14 l1, PS) | 102
GTTACTGCCTTCTTAC (sugars l2 d1 l1 d7 l5, PS) | 335
GTTACTGCCTTCTTAC (sugars l2 d1 l1 d8 l4, PS) | 194
GTTACTGCCTTCTTAC (sugars l2 d1 l1 d9 l3, PS) | 130
GTTACTGCCTTCTTAC (sugars l2 d1 l1 d10 l2, PS) | 97.3
GTTACTGCCTTCTTAC (sugars l2 d1 l1 d11 l1, PS) | 110
GTTACTGCCTTCTTAC (sugars l2 d1 l2 d6 l5, PS) | 474
GTTACTGCCTTCTTAC (sugars l2 d1 l2 d7 l4, PS) | 376
GTTACTGCCTTCTTAC (sugars l2 d1 l2 d8 l3, PS) | 318
GTTACTGCCTTCTTAC (sugars l2 d1 l2 d9 l2, PS) | 161
GTTACTGCCTTCTTAC (sugars l2 d1 l2 d10 l1, PS) | 161
GTTACTGCCTTCTTAC (sugars l2 d2 l1 d6 l5, PS) | 365
GTTACTGCCTTCTTAC (sugars l2 d2 l1 d7 l4, PS) | 324
GTTACTGCCTTCTTAC (sugars l2 d2 l1 d8 l3, PS) | 237
GTTACTGCCTTCTTAC (sugars l2 d2 l1 d9 l2, PS) | 138
GTTACTGCCTTCTTAC (sugars l2 d2 l1 d10 l1, PS) | 158

From the OligoGym collection
